The Kinase Knowledgebase extract (Sharma et al. 2016)

Experiments:
PIK3CA (human) = PIK3CA (human) (UniProt P42336); assay: Assessment of PIK3CA Kinase Activity
PIK3CD (Human) = PIK3CD (Human) (UniProt O00329); assay: Assessment of PIK3CD Kinase Activity
PIK3CG (human) = PIK3CG (human) (UniProt P48736); assay: Assessment of PIK3CG Kinase Activity
PIK3CB (Human) = PIK3CB (Human) (UniProt P42338); assay: Assessment of PIK3CB Kinase Activity
Sequence of PIK3CB (Human) (P42338 whole entry, looked up): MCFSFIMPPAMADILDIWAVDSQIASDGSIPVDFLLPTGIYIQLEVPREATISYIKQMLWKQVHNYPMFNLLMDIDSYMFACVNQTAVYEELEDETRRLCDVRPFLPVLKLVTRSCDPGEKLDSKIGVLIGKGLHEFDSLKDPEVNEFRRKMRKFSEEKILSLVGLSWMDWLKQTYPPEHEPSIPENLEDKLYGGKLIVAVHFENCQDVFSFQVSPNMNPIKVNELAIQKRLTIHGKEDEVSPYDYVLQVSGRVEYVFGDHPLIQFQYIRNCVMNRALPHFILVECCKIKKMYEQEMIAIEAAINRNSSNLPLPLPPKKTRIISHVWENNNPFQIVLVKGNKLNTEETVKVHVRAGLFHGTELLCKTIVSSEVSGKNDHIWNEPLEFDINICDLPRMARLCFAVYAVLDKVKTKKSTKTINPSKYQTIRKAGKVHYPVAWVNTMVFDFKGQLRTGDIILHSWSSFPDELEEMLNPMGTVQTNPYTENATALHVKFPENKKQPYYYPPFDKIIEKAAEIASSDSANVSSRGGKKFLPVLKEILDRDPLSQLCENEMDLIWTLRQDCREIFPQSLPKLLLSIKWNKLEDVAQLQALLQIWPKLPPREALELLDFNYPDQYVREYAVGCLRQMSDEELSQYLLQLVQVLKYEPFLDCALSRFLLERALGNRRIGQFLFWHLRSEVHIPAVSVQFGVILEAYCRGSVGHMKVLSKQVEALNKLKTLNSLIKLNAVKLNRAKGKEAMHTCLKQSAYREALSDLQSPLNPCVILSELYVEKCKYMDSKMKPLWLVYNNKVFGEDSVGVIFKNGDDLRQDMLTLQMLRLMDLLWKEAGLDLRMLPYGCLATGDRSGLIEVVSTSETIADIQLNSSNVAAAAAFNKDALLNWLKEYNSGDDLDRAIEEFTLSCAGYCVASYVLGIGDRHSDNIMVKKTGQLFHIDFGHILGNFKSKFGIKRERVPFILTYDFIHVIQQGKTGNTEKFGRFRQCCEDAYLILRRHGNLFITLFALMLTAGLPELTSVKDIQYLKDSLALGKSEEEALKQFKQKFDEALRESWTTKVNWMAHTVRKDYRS

Sequence of PIK3CD (Human) (O00329 whole entry, looked up): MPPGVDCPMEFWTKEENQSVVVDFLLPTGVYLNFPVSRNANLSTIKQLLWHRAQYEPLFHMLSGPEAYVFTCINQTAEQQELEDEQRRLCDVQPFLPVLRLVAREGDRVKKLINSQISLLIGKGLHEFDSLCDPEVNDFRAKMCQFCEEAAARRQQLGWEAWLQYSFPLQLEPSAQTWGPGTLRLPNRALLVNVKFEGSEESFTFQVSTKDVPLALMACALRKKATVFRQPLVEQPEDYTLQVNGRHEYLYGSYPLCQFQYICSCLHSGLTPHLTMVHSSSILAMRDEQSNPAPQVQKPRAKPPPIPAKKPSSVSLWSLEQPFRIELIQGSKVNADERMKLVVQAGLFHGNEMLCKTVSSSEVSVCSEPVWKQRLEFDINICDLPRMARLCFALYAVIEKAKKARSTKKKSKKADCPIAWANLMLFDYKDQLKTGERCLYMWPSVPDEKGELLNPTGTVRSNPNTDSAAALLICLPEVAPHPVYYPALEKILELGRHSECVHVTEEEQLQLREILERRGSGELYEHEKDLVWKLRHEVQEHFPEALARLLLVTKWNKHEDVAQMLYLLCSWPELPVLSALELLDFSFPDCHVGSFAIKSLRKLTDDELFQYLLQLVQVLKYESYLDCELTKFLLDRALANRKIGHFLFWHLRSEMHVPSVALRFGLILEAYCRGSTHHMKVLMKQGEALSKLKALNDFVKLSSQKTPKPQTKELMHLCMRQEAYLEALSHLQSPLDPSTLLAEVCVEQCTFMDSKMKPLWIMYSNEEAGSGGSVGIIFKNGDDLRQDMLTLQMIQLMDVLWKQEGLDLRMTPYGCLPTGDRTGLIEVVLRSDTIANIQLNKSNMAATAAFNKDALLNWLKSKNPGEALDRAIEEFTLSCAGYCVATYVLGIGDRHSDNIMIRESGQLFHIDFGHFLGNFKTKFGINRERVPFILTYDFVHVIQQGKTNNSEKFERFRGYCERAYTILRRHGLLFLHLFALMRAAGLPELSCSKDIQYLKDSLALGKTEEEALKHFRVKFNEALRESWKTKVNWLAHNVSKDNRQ
Sequence of PIK3CG (human) (P48736 whole entry, looked up): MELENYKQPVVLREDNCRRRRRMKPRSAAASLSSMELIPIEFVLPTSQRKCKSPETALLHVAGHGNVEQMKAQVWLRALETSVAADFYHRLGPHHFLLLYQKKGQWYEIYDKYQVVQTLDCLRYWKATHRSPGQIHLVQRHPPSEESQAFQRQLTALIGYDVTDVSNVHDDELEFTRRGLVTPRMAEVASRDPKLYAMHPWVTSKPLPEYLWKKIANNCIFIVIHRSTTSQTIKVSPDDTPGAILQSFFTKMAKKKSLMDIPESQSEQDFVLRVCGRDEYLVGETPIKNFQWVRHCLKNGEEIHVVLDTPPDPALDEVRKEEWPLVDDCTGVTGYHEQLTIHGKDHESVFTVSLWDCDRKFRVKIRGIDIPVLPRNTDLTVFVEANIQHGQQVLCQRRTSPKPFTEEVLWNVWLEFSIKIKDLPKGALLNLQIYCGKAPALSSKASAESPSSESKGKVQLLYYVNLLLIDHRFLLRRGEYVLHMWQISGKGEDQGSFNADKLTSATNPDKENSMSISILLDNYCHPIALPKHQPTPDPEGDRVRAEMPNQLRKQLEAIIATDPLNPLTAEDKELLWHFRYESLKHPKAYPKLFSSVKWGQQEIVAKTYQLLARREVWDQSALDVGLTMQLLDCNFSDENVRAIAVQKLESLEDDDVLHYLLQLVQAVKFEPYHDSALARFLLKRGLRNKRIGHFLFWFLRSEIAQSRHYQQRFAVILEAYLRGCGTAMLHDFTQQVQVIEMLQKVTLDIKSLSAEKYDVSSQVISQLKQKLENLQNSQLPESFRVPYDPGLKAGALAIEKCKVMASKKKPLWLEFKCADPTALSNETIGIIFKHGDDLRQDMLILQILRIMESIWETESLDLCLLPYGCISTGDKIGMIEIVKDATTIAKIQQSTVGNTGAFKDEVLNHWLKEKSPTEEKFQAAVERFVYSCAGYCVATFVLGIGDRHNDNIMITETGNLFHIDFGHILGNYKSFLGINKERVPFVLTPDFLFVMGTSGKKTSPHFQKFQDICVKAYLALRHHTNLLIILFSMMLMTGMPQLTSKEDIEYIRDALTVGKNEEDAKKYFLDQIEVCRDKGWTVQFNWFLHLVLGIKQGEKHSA
Sequence of PIK3CA (human) (P42336 whole entry, looked up): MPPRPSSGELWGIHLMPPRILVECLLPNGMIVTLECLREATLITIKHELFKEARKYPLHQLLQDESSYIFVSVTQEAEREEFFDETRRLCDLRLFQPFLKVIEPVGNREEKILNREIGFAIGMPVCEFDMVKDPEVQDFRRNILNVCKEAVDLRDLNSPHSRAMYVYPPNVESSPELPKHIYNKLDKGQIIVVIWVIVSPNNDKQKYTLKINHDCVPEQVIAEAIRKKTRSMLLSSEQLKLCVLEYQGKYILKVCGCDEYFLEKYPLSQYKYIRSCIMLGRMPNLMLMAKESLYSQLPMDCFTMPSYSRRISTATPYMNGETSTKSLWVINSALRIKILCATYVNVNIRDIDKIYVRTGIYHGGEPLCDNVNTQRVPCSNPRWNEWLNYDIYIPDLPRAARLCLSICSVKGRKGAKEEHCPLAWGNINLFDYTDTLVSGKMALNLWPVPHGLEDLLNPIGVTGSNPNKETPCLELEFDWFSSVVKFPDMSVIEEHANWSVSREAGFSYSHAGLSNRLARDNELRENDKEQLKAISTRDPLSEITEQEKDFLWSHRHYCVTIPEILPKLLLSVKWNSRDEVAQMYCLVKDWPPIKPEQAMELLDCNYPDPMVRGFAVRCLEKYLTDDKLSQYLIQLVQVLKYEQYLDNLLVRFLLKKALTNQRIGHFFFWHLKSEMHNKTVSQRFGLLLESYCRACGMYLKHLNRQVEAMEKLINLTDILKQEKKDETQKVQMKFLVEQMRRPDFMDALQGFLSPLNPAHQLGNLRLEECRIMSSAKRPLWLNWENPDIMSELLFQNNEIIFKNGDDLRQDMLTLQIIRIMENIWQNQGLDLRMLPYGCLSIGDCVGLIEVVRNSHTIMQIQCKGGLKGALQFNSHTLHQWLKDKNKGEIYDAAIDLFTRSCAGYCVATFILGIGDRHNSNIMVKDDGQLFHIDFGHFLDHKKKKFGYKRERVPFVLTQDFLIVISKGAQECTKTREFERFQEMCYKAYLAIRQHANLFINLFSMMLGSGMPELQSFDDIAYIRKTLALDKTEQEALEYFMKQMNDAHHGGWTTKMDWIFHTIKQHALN

SMILES	IC50 (PIK3CA (human)) [nM]	IC50 (PIK3CD (Human)) [nM]	IC50 (PIK3CG (human)) [nM]	IC50 (PIK3CB (Human)) [nM]
CC(C)NS(=O)(=O)c1cncc(-c2ccc3nc(NC(=O)NCC(=O)N4CCOCC4)nn3c2)c1	100 to 1000	< 100	< 100	
CC(C)NS(=O)(=O)c1cncc(-c2ccc3nc(NC(=O)NCC(=O)N4CCCC4)nn3c2)c1		< 100	< 100	
CC(C)(C)NS(=O)(=O)c1cncc(-c2cc(F)c3nc(NC(=O)NCC(=O)N4CCCC4)nn3c2)c1		100 to 1000	< 100	
CC(C)(C)NS(=O)(=O)c1cncc(-c2ccc3nc(NC(=O)NCC(=O)NC4CC4)nn3c2)c1		100 to 1000	< 100	100 to 1000
CN(C(=O)CNC(=O)Nc1nc2ccc(-c3cncc(S(=O)(=O)NC(C)(C)C)c3)cn2n1)C1CC1	100 to 1000	< 100	< 100	
O=C(NCC(=O)N1CCCC1)Nc1nc2ccc(-c3cncc(C(F)(F)F)c3)cn2n1			< 100	> 10000
CC(C)(C)NS(=O)(=O)c1cncc(-c2ccc3nc(NC(=O)NCC(=O)NC4CCNCC4)nn3c2)c1		100 to 1000	< 100	100 to 1000
CS(=O)(=O)c1cncc(-c2ccc3nc(NC(=O)NCC(=O)N4CCOCC4)nn3c2)c1		100 to 1000	< 100	
CC(C)(C)NS(=O)(=O)c1cncc(-c2cc(F)c3nc(NC(=O)NCC(=O)N4CCOCC4)nn3c2)c1		< 100	< 100	

More lines, now with the values ahead:

IC50 (PIK3CA (human)) [nM]	IC50 (PIK3CD (Human)) [nM]	IC50 (PIK3CG (human)) [nM]	IC50 (PIK3CB (Human)) [nM]	SMILES
100 to 1000	< 100	< 100		CC(C)(C)NS(=O)(=O)c1cncc(-c2ccc3nc(NC(=O)NCC(=O)N4CCCCC4)nn3c2)c1
100 to 1000	< 100	< 100	100 to 1000	CN(C)[C@H]1CCN(C(=O)CNC(=O)Nc2nc3ccc(-c4cncc(S(=O)(=O)NC(C)(C)C)c4)cn3n2)C1
	< 100	< 100		CC(C)(C)NS(=O)(=O)c1cncc(-c2ccc3nc(NC(=O)NCCC(=O)N4CCCCC4)nn3c2)c1
	< 100	< 100	100 to 1000	CC(C)(C)NS(=O)(=O)c1cncc(-c2ccc3nc(NC(=O)NCC(=O)N4CCC(N)CC4)nn3c2)c1
100 to 1000	< 100	< 100	100 to 1000	CN1CCN(C(=O)CNC(=O)Nc2nc3ccc(-c4cncc(S(=O)(=O)NC(C)(C)C)c4)cn3n2)CC1
100 to 1000	< 100	< 100	100 to 1000	COCCN1CCN(C(=O)CNC(=O)Nc2nc3ccc(-c4cncc(S(=O)(=O)NC(C)(C)C)c4)cn3n2)CC1
100 to 1000	< 100	< 100	100 to 1000	CC(C)(C)NS(=O)(=O)c1cncc(-c2ccc3nc(NC(=O)NCC(=O)N4CCOCC4)nn3c2)c1
	< 100	< 100		CC(C)(C)NS(=O)(=O)c1cncc(-c2ccc3nc(NC(=O)NCC(=O)N4CCCC4)nn3c2)c1
	< 100	< 100	100 to 1000	CC(C)(C)NS(=O)(=O)c1cncc(-c2ccc3nc(NC(=O)NCCC(=O)N4CCCC4)nn3c2)c1
